Experimental data taken from ChEMBL document CHEMBL5230166, “Novel quinoline-piperazine hybrids: the design, synthesis and evaluation of antibacterial and antituberculosis properties” (RSC Med Chem, 2023).
Converted amounts (≈) assume the structure as drawn.

Tested on: Mycobacterium tuberculosis
Assay: Antibacterial activity multi-drug resistant Mycobacterium tuberculosis H37Rv ATCC 35822 assessed as inhibition of bacterial growth incubated for 2 days by CLSI protocol based broth microdilution method
Assay type: functional
Details: H37Rv ATCC 35822, 48 h, time 2 day

`COc1cc(CN2CCN(C(=O)c3cccc(Cl)c3)CC2)nc2ccc(F)cc12` and `COc1cc(CN2CCN(C(=O)c3cccc(F)c3)CC2)nc2ccc(F)cc12` cannot be ordered by MIC: over 64 µg/mL for the first, over 64 µg/mL for the second.

First: COc1cc(CN2CCN(S(=O)(=O)c3ccc(Cl)cc3Cl)CC2)nc2ccc(F)cc12
Second: COc1cc(CN2CCN(S(=O)(=O)c3ccccc3F)CC2)nc2ccc(F)cc12
The MIC of the first is higher: over 64 µg/mL for the first, 4 µg/mL (≈ 9.23 µM) for the second.

`COc1ccc(C(=O)N2CCN(Cc3cc(OC)c4cc(F)ccc4n3)CC2)cc1` and `COc1ccc(S(=O)(=O)N2CCN(Cc3cc(OC)c4cc(F)ccc4n3)CC2)cc1` cannot be ordered by MIC: over 64 µg/mL for the first, over 64 µg/mL for the second.

`COc1cc(CN2CCN(S(=O)(=O)c3ccc(C)cc3)CC2)nc2ccc(F)cc12` and `COc1ccc2nc(CN3CCN(S(=O)(=O)c4ccc(F)cc4)CC3)cc(OC)c2c1` cannot be ordered by MIC: over 64 µg/mL for the first, over 64 µg/mL for the second.

`COc1ccc2nc(CN3CCN(S(=O)(=O)c4ccc(NC(C)=O)cc4)CC3)cc(OC)c2c1` and `COc1cc(CN2CCN(S(=O)(=O)c3ccc(NC(C)=O)cc3)CC2)nc2ccc(F)cc12` cannot be ordered by MIC: over 64 µg/mL for the first, over 64 µg/mL for the second.

`COc1cc(CN2CCN(C(=O)c3ccccc3F)CC2)nc2ccc(F)cc12` and `COc1cc(CN2CCN(C(=O)c3ccccc3C)CC2)nc2ccc(F)cc12` cannot be ordered by MIC: over 64 µg/mL for the first, over 64 µg/mL for the second.

Going from `COc1ccc2nc(CN3CCN(S(=O)(=O)c4ccccc4C(F)(F)F)CC3)cc(OC)c2c1` to `COc1ccc2nc(CN3CCN(S(=O)(=O)c4ccccc4F)CC3)cc(OC)c2c1`, the MIC falls from over 64 µg/mL to 0.5 µg/mL (≈ 1.12 µM).

`COc1ccc2nc(CN3CCN(S(=O)(=O)c4cccs4)CC3)cc(OC)c2c1` and `CNS(=O)(=O)N1CCN(Cc2cc(OC)c3cc(OC)ccc3n2)CC1` cannot be ordered by MIC: over 64 µg/mL for the first, over 64 µg/mL for the second.

`COc1ccc2nc(CN3CCN(C(=O)c4ccccc4F)CC3)cc(OC)c2c1` and `COc1ccc2nc(CN3CCN(C(=O)c4ccccc4OC)CC3)cc(OC)c2c1` cannot be ordered by MIC: over 64 µg/mL for the first, over 64 µg/mL for the second.

`COc1ccc2nc(CN3CCN(S(=O)(=O)c4c(C)cc(C)cc4C)CC3)cc(OC)c2c1` and `COc1ccc2nc(CN3CCN(S(=O)(=O)c4c(F)c(F)c(F)c(F)c4F)CC3)cc(OC)c2c1` cannot be ordered by MIC: over 64 µg/mL for the first, over 64 µg/mL for the second.

`COc1cccc(C(=O)N2CCN(Cc3cc(OC)c4cc(OC)ccc4n3)CC2)c1` and `COc1ccc2nc(CN3CCN(C(=O)c4ccc(Cl)c(Cl)c4)CC3)cc(OC)c2c1` cannot be ordered by MIC: over 64 µg/mL for the first, over 64 µg/mL for the second.

`COc1ccc2nc(CN3CCN(S(=O)(=O)c4cccc5ccccc45)CC3)cc(OC)c2c1` and `COc1ccc2nc(CN3CCN(C(=O)c4c(Cl)cccc4Cl)CC3)cc(OC)c2c1` cannot be ordered by MIC: over 64 µg/mL for the first, over 64 µg/mL for the second.

`COc1ccc2nc(CN3CCN(C(=O)C4CCC4)CC3)cc(OC)c2c1` and `COc1ccc2nc(CN3CCN(C(=O)c4ccc(Cl)cc4Cl)CC3)cc(OC)c2c1` cannot be ordered by MIC: over 64 µg/mL for the first, over 64 µg/mL for the second.

Going from `C[C@H]1COc2c(N3CCN(C)CC3)c(F)cc3c(=O)c(C(=O)O)cn1c23.C[C@H]1COc2c(N3CCN(C)CC3)c(F)cc3c(=O)c(C(=O)O)cn1c23.O` [LEVOFLOXACIN] to `CO[C@H]1/C=C/O[C@@]2(C)Oc3c(C)c(O)c4c(O)c(c(/C=N/N5CCN(C)CC5)c(O)c4c3C2=O)NC(=O)/C(C)=C\C=C\[C@H](C)[C@H](O)[C@@H](C)[C@@H](O)[C@@H](C)[C@H](OC(C)=O)[C@@H]1C` [RIFAMPIN], the MIC rises from 4 µg/mL to over 64 µg/mL.
